Test results as given in US20070244103A1, “Novel Compounds Having an Anti-Bacterial Activity” (Morphochem Aktiengesellschaft Fur Kombinatorische Chemie, priority 2004, published 2007).

test: MIC of the examples against various organisms; format: cell-based; conditions: against at least two of the above organisms (12-strain panel)
Protocol: The MIC (μg/ml) of the examples against various organisms was determined: A. baumannii ATCC19606, E. cloacae ATCC23355, E. coli ATCC25922, K. pneumoniae ATCC27736, P. mirabilis ATCC29906, P. aeruginosa ATCC27853, S. maltophilia ATCC13637, S. aureus ATCC43300, S. epidermidis ATCC14990, S. haemolyticus ATCC29970, E. faecalis ATCC29212 and E. faecium ATC19434.

SMILES | MIC
COc1ccc2ncc(Cl)c(C(O)CN3C4CCC3CC(NCc3ccc5c(c3)OCCO5)C4)c2n1 (centres unmarked) [Example 25, 1-(3-Chloro-6-methoxy-[1,5]-naphthyridin-4-yl)-2-{3-[(2,3-dihydro-benzo[1,4]dioxin-6-ylmethyl)-amino]-8-aza-bicyclo[3.2.1]oct-8-yl}-ethanol] | ≤ 2 mg/L
COc1ccc2ncc(Cl)c(C(O)CN3C4CCC3CC(NCc3ccc5c(c3)NC(=O)CO5)C4)c2n1 (centres unmarked) [Example 27, 6-({8-[2-(3-Chloro-6-methoxy-[1,5]-naphthyridin-4-yl)-2-hydroxy-ethyl]-8-aza-bicyclo[3.2.1]oct-3-ylamino}-methyl)-4H-benzo[1,4]oxazin-3-one] | ≤ 2 mg/L
COc1cnc2cccc(C(O)CN3C4CCC3CC(NCc3ccc5c(c3)OCCO5)C4)c2n1 (centres unmarked) [Example 78, 2-{3-[(2,3-Dihydro-benzo[1,4]dioxin-6-ylmethyl)-amino]-8-aza-bicyclo[3.2.1]oct-8-yl}-1-(3-methoxy-quinoxalin-5-yl)-ethanol] | ≤ 2 mg/L
COc1cnc2cccc(NC(=O)C3CCCC(CNCc4cc5c(cn4)OCCO5)C3)c2n1 (centres unmarked) [Example 107, 3-{[(2,3-Dihydro-[1,4]dioxino[2,3-c]pyridin-7-ylmethyl)-amino]-methyl}-cyclohexanecarboxylic acid (3-methoxy-quinoxalin-5-yl)-amide] | ≤ 2 mg/L
COc1ccc2ncc(Cl)c(C(O)CN3C4CCC3CC(NC/C=C/c3ccccc3)C4)c2c1 (single isomer, unassigned) [Example 63, 1-(3-Chloro-6-methoxy-quinolin-4-yl)-2-[3-((E)-3-phenyl-allylamino)-8-aza-bicyclo[3.2.1]oct-8-yl]-ethanol] | ≤ 2 mg/L
COc1ccc2nccc(C(O)CN3C4CCC3CC(NCc3ccc5c(c3)OCO5)C4)c2n1 (single isomer, unassigned) [Example 9, 2-{3-[(Benzo[1,3]dioxol-5-ylmethyl)-amino]-8-aza-bicyclo[3.2.1]oct-8-yl}-1-(6-methoxy-[1,5]-naphthyridin-4-yl)-ethanol] | ≤ 2 mg/L
COc1ccc2nccc(NC(=O)C3CCCC(CNCc4ccc5c(c4)NC(=O)CO5)C3)c2n1 (centres unmarked) [Example 15, 3-{[(3-Oxo-3,4-dihydro-2H-benzo[1,4]oxazin-6-ylmethyl)-amino]-methyl}-cyclohexanecarboxylic acid (6-methoxy-[1,5]-naphthyridin-4-yl)-amide] | ≤ 2 mg/L
COc1cnc2ccc(Cl)c(C(O)CN3CCCC(CNCc4ccc5c(c4)NC(=O)CS5)C3)c2n1 (centres unmarked) [Example 96, 6-[({1-[2-(6-Chloro-3-methoxy-quinoxalin-5-yl)-2-hydroxy-ethyl]-piperidin-3-ylmethyl}-amino)-methyl]-4H-benzo[1,4]thiazin-3-one] | ≤ 2 mg/L
COc1cnc2cccc(C(O)CN3CCCC(CNCc4cc5c(cc4F)SCC(=O)N5)C3)c2n1 (centres unmarked) [Example 89, 7-Fluoro-6-[({1-[2-hydroxy-2-(3-methoxy-quinoxalin-5-yl)-ethyl]-piperidin-3-ylmethyl}-amino)-methyl]-4H-benzo[1,4]thiazin-3-one] | ≤ 2 mg/L
COc1cnc2ccc(Cl)c(C(O)CN3CCCC(CNC/C=C/c4ccccc4)C3)c2n1 (centres unmarked) [Example 99, 1-(6-Chloro-3-methoxy-quinoxalin-5-yl)-2-{3-[((E)-3-phenyl-allylamino)-methyl]-piperidin-1-yl}-ethanol] | ≤ 2 mg/L
COc1cnc2cccc(C(O)CN3CCCC(CNCc4ccc5c(c4)OCO5)C3)c2c1 (single isomer, unassigned) [Example 44, 2-(3-{[(Benzo[1,3]dioxol-5-ylmethyl)-amino]-methyl}-piperidin-1-yl)-1-(3-methoxy-quinolin-5-yl)-ethanol] | ≤ 2 mg/L
COc1ccc2nccc(C(O)CN3C4CCC3CC(NCc3ccc5c(c3)NC(=O)CO5)C4)c2n1 (single isomer, unassigned) [Example 8, 6-({8-[2-Hydroxy-2-(6-methoxy-[1,5]-naphthyridin-4-yl)-ethyl]-8-aza-bicyclo[3.2.1]oct-3-ylamino}-methyl)-4H-benzo[1,4]oxazin-3-one] | ≤ 2 mg/L
COc1cnc2ccc(Cl)c(C(O)CN3CCCC(CNCc4ccc5c(c4)OCCO5)C3)c2n1 (centres unmarked) [Example 95, 1-(6-Chloro-3-methoxy-quinoxalin-5-yl)-2-(3-{[(2,3-dihydro-benzo[1,4]dioxin-6-ylmethyl)-amino]-methyl}-piperidin-1-yl)-ethanol] | ≤ 2 mg/L
COc1cnc2ccc(Cl)c(C(O)CN3CCCC(CNCc4cc5c(cn4)OCCO5)C3)c2n1 (centres unmarked) [Example 97, 1-(6-Chloro-3-methoxy-quinoxalin-5-yl)-2-(3-{[(2,3-dihydro-[1,4]dioxino[2,3-c]-pyridin-7-ylmethyl)-amino]-methyl}-piperidin-1-yl)-ethanol] | ≤ 2 mg/L
COc1cnc2cccc(NC(=O)C3CCCC(CNCc4ccc5c(n4)NC(=O)CS5)C3)c2n1 (centres unmarked) [Example 105, 3-{[(3-Oxo-3,4-dihydro-2H-pyrido[3,2-b][1,4]thiazin-6-ylmethyl)-amino]-methyl}-cyclohexanecarboxylic acid (3-methoxy-quinoxalin-5-yl)-amide] | ≤ 2 mg/L
COc1ccc2ncc(Cl)c(C(O)CN3C4CCC3CC(NCc3cc5c(cc3F)SCC(=O)N5)C4)c2c1 (single isomer, unassigned) [Example 60, 6-({8-[2-(3-Chloro-6-methoxy-quinolin-4-yl)-2-hydroxy-ethyl]-8-aza-bicyclo[3.2.1]oct-3-ylamino}-methyl)-7-fluoro-4H-benzo[1,4]thiazin-3-one] | ≤ 2 mg/L
COc1ccc2nccc(NC(=O)C3CCCC(CNCc4ccc5nsnc5c4)C3)c2n1 (centres unmarked) [Example 20, 3-{[(Benzo[1,2,5]thiadiazol-5-ylmethyl)-amino]-methyl}-cyclohexanecarboxylic acid (6-methoxy-[1,5]-naphthyridin-4-yl)-amide] | ≤ 2 mg/L
COc1cnc2cccc(C(O)CN3C4CCC3CC(NCc3ccc5c(n3)NC(=O)CS5)C4)c2c1 (single isomer, unassigned) [Example 37, 6-({8-[2-Hydroxy-2-(3-methoxy-quinolin-5-yl)-ethyl]-8-aza-bicyclo[3.2.1]oct-3-ylamino}-methyl)-4H-pyrido[3,2-b][1,4]thiazin-3-one] | ≤ 2 mg/L
COc1cnc2cccc(C(O)CN3C4CCC3CC(NCc3ccc5c(c3)NC(=O)CS5)C4)c2c1 (single isomer, unassigned) [Example 36, 6-({8-[2-Hydroxy-2-(3-methoxy-quinolin-5-yl)-ethyl]-8-aza-bicyclo[3.2.1]oct-3-ylamino}-methyl)-4H-benzo[1,4]thiazin-3-one] | ≤ 2 mg/L
COc1ccc2cccc(NC(=O)C3CCCC(CNCc4ccc5c(n4)NC(=O)CS5)C3)c2n1 (centres unmarked) [Example 108, 3-{[(3-Oxo-3,4-dihydro-2H-pyrido[3,2-b][1,4]thiazin-6-ylmethyl)-amino]-methyl}-cyclohexanecarboxylic acid (2-methoxy-quinolin-8-yl)-amide] | ≤ 2 mg/L
COc1ccc2ncc(Cl)c(C(O)CN3CCOC(CNCc4ccc5c(c4)OCO5)C3)c2c1 (single isomer, unassigned) [Example 72, 2-(2-{[(Benzo[1,3]dioxol-5-ylmethyl)-amino]-methyl}-morpholin-4-yl)-1-(3-chloro-6-methoxy-quinolin-4-yl)-ethanol] | ≤ 2 mg/L
COc1ccc2nccc(C(O)CN3CCCC(CNC/C=C/c4ccccc4)C3)c2n1 (single isomer, unassigned) [Example 7, 1-(6-Methoxy-[1,5]-naphthyridin-4-yl)-2-{3-[((E)-3-phenyl-allylamino)-methyl]-piperidin-1-yl}-ethanol] | ≤ 2 mg/L
COc1cnc2ccc(Cl)c(C(O)CN3CCCC(CNCc4ccc5c(c4)NC(=O)CO5)C3)c2n1 (centres unmarked) [Example 93, 6-[({1-[2-(6-Chloro-3-methoxy-quinoxalin-5-yl)-2-hydroxy-ethyl]-piperidin-3-ylmethyl}-amino)-methyl]-4H-benzo[1,4]oxazin-3-one] | ≤ 2 mg/L
COc1ccc2nccc(NC(=O)C3CCCC(CNCc4ccc5c(n4)NC(=O)CS5)C3)c2n1 (centres unmarked) [Example 17, 3-{[(3-Oxo-3,4-dihydro-2H-pyrido[3,2-b][1,4]thiazin-6-ylmethyl)-amino]-methyl}-cyclohexanecarboxylic acid (6-methoxy-[1,5]-naphthyridin-4-yl)-amide] | ≤ 2 mg/L
COc1ccc2nccc(C(O)CN3C4CCC3CC(NCc3ccc5c(c3)NC(=O)CS5)C4)c2n1 (single isomer, unassigned) [Example 13, 6-({8-[2-Hydroxy-2-(6-methoxy-[1,5]-naphthyridin-4-yl)-ethyl]-8-aza-bicyclo[3.2.1]oct-3-ylamino}-methyl)-4H-benzo[1,4]thiazin-3-one] | ≤ 2 mg/L
COc1ccc2ncc(Cl)c(C(O)CN3CCCC(CNCc4ccc5nsnc5c4)C3)c2c1 (single isomer, unassigned) [Example 70, 2-(3-{[(Benzo[1,2,5]thiadiazol-5-ylmethyl)-amino]-methyl}-piperidin-1-yl)-1-(3-chloro-6-methoxy-quinolin-4-yl)-ethanol] | ≤ 2 mg/L
COc1ccc2ncc(Cl)c(C(O)CN3C4CCC3CC(NCc3ccc5c(c3)NC(=O)CS5)C4)c2n1 (centres unmarked) [Example 29, 6-({8-[2-(3-Chloro-6-methoxy-[1,5]-naphthyridin-4-yl)-2-hydroxy-ethyl]-8-aza-bicyclo[3.2.1]oct-3-ylamino}-methyl)-4H-benzo[1,4]thiazin-3-one] | ≤ 2 mg/L
COc1ccc2ncc(Cl)c(C(O)CN3C4CCC3CC(NCc3ccc5c(c3)OCO5)C4)c2c1 (single isomer, unassigned) [Example 61, 2-{3-[(Benzo[1,3]dioxol-5-ylmethyl)-amino]-8-aza-bicyclo[3.2.1]oct-8-yl}-1-(3-chloro-6-methoxy-quinolin-4-yl)-ethanol] | ≤ 2 mg/L
COc1ccc2nccc(C(O)CN3C4CCC3CC(NCc3ccc5c(c3)OCCO5)C4)c2n1 (single isomer, unassigned) [Example 10, 2-{3-[(2,3-Dihydro-benzo[1,4]dioxin-6-ylmethyl)-amino]-8-aza-bicyclo[3.2.1]oct-8-yl}-1-(6-methoxy-[1,5]-naphthyridin-4-yl)-ethanol] | ≤ 2 mg/L
